Holding throughout (assay): NCI tumour cell line growth inhibition, 48 h
Assay [1] has as its system SK-MEL-2 melanoma.
Assay [2] has as its system SNB-75 CNS.
The test system of assay [3] is RPMI-8226 leukemia.
For assay [4], the system named is NCI-H23 lung.
Assay [5] relates to SNB-19 CNS.
For assay [6], the system named is SK-OV-3 ovarian.
For assay [7], the system named is SK-MEL-5 melanoma.
Assay [8] relates to KM12 colon.
Assay [9] concerns HCT-15 colon.
Assay [10] deals with NCI-H460 lung.

Data on 9 molecules can be found in PubChem BioAssay (NCI).

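Tested at 5 concentrations; 48 h exposure; 96-well plates; endpoints linearly interpolated, else capped at highest concentration. Abbreviation: GI50, concentration required for 50% inhibition of growth. TGI is the concentration that stops growth completely.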 A value given as a limit tells only on which side of the number the result lay.

On to `CCCCCCCCCCCC(=O)CC(=O)c1c(O)cccc1O`, for which the TGI in assay [1] stood at 31 µM; in assay [2] it was 36.5 µM; in [3] it was 43.9 µM; in assay [4], 41.9 µM; in assay [5] it was 36.8 µM; in [6] it was 95.5 µM. Besides, the TGI is 35.6 µM in assay [7], 31.2 µM in assay [8], 47.4 µM in assay [9] and 35.7 µM in assay [10].
For the molecule `COc1ccc(CNc2cc(OC)c(OC)c(OC)c2)cc1`, the TGI in assay [1] was above 100 µM; in [2], 97.1 µM; in assay [3], 83.1 µM; in [4], above 55.9 µM; in [5], above 100 µM; in [6] it was above 90.5 µM. Besides, the TGI is 14.6 µM in [7], above 41.7 µM in assay [8], above 100 µM in assay [9] and above 30 µM in assay [10].
On to `O=C(Nc1ccc(N2CCNCC2)cc1)c1[nH]ncc1Nc1cc(Oc2ccccc2)ncn1`, for which the GI50 in [1] is 3.82 µM; in assay [2], 2.45 µM; in assay [3], 1500 nM; in [4] it was 2120 nM; in assay [5], 3.19 µM; in [6], 1990 nM. Further, the GI50 was 1430 nM in assay [7], 216 nM in assay [8], 2180 nM in assay [9] and 635 nM in assay [10]. The TGI in assay [1] amounted to 15.3 µM; in assay [2] it was 5.6 µM; in [3], 3.88 µM; in assay [4] it was 7.85 µM; in assay [5], 12.5 µM; in [6] it was 4.84 µM. In addition, the TGI stood at 3 µM in assay [7], 0.521 µM in assay [8], 5.64 µM in assay [9] and 2.3 µM in assay [10].
For `O=C1CNCCCN2CCN(CCCNCC(=O)Nc3ccc(cc3)S(=O)(=O)c3ccc(cc3)NC(=O)CNCCCN3CCN(CCCNCC(=O)Nc4ccc(cc4)S(=O)(=O)c4ccc(cc4)N1)CC3)CC2`, the TGI in assay [1] was 90.1 µM; in assay [2], above 100 µM; in [3], 64 µM; in assay [4], above 76.9 µM; in [5], above 100 µM; in assay [6], above 100 µM. The TGI is above 73 µM in assay [7], above 100 µM in [8], above 54.8 µM in assay [9] and 33.8 µM in assay [10].
Take `Cc1cc(I)cc(CNCCCN2CCSCC2)c1O`: the GI50 in assay [1] was 18.6 µM; in assay [2], 13.7 µM; in [3], 12400 nM; in assay [4] it was 20900 nM; in [5], 18.4 µM; in assay [6] it was 17900 nM. Also, the GI50 in assay [7] is 10700 nM; in [8] it was 16900 nM; in assay [9], 17700 nM; in [10] it was 14300 nM. In addition, the TGI in [1] stood at 35.4 µM; in assay [2], 28.8 µM; in [3], 30.8 µM; in [4], 63.7 µM; in [5], 41 µM; in [6] it was 36.4 µM. In addition, the TGI in [7] was determined as 22.5 µM; in [8] it was 35.9 µM; in assay [9], 35.9 µM; in assay [10], 29.5 µM.
Consider `Cc1ccc2c(c1)C(=O)/C(=C/c1ncc([N+](=O)[O-])n1C)O2`, for which the GI50 in assay [1] was 1.88 µM; in assay [2] it was 3.14 µM; in assay [3], 1600 nM; in [4], 2280 nM; in [5], 2.36 µM; in assay [6], 2530 nM. The GI50 in assay [7] is 1140 nM; in [8], 1670 nM; in assay [9] it was 369 nM; in [10] it was 2050 nM. Besides, the TGI in assay [1] was 3.54 µM; in assay [2] it was 22.8 µM; in assay [3] it was 5.63 µM; in [4] it was 6.56 µM; in assay [5] it was above 25.6 µM; in assay [6], 7.24 µM. Moreover, the TGI in assay [7] was determined as 2.51 µM; in assay [8], 5.21 µM; in assay [9], 8.78 µM; in assay [10], 5.97 µM.
As to `O=NN(Cc1ccc(Cl)cc1)C(C(=O)O)c1ccccc1` (stereo not given), the TGI in [1], in assay [2], in assay [3], in assay [4], in [5] and in [6] was above 100 µM in each case. Moreover, the TGI in assay [7], in assay [8], in assay [9] and in [10] was above 100 µM in each case.
Consider `COc1ccc(OC)c(NC(=O)C(=O)C(C(C)=O)c2nc3ccc(Cl)cc3[nH]c2=O)c1` (stereo not given), for which the TGI in assay [1], in [2], in assay [3], in assay [4], in [5] and in assay [6] was above 50 µM each time. The TGI in assay [7], in [8], in assay [9] and in assay [10] was above 50 µM each time.
As for `Cc1cc(N(CCOS(C)(=O)=O)CCOS(C)(=O)=O)ccc1C=Nc1ccc(-c2nc(Cc3ccccc3)sc2C)cc1`, the TGI in [1] amounted to 34.9 µM; in assay [2] it was 12.3 µM; in [3], 31.8 µM; in assay [4], 17.8 µM; in assay [5], 43.9 µM; in [6] it was 4.56 µM. Besides, the TGI in assay [7] worked out at 26.7 µM; in assay [8], 34 µM; in assay [9] it was 35.2 µM; in assay [10] it was 5.03 µM.
